Measured values from ChEMBL document CHEMBL1152961, “Synthesis and biological evaluation of novel carbon-11 labeled pyridyl ethers: candidate ligands for in vivo imaging of alpha4beta2 nicotinic acetylcholine receptors (alpha4beta2-nAChRs) in the brain with positron emission tomography” (Bioorg Med Chem, 2009).

Columns and labels:
[1] = Drug uptake in baboon brain thalamus assessed as binding potential at 17.5 mCi by bolus injection; type: ADME, organism-based; conditions: papio anubis, in vivo, iv
[2] = Drug uptake in baboon brain thalamus assessed as binding potential at 21 mCi by bolus injection; type: ADME, organism-based; conditions: papio anubis, in vivo, iv
[3] = Drug uptake in baboon brain thalamus assessed as binding potential at 31 mCi by bolus injection; type: ADME, organism-based; conditions: papio anubis, in vivo, iv
[4] = Ratio of drug uptake in thalamus to cerebellum of CD1 mouse at 0.07 mCi, iv after 45 mins; type: ADME, organism-based; conditions: in vivo, 0.75 h
[5] = Octanol-water partition coefficient, log D at pH 7.4 by shake flask method; type: physicochemical
[6] = target: T1, Neuronal acetylcholine receptor; alpha4/beta2 (Rattus norvegicus, UniProt P09483+P12390); assay: Displacement of [3H]epibatidine from rat alpha4beta2 nicotinic receptor expressed in human HEK293 cells by liquid scintillation counting; type: cell-based
T1 sequence (P09483 whole entry): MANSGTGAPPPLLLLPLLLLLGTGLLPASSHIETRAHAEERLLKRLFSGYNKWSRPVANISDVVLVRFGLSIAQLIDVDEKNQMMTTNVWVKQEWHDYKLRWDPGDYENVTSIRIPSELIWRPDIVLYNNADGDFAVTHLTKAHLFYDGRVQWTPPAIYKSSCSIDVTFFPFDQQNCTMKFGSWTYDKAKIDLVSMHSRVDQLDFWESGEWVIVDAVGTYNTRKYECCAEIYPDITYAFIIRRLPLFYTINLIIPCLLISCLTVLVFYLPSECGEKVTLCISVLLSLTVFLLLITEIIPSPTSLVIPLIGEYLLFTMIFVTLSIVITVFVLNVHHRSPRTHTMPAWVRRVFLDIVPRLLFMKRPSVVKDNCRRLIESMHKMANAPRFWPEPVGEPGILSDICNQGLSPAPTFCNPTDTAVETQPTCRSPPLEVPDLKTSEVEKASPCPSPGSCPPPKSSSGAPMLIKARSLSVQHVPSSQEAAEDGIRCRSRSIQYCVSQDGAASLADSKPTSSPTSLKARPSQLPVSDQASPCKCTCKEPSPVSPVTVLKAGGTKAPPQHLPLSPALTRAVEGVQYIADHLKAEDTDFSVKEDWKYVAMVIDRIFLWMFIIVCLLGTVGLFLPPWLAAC
T1 sequence (P12390 whole entry): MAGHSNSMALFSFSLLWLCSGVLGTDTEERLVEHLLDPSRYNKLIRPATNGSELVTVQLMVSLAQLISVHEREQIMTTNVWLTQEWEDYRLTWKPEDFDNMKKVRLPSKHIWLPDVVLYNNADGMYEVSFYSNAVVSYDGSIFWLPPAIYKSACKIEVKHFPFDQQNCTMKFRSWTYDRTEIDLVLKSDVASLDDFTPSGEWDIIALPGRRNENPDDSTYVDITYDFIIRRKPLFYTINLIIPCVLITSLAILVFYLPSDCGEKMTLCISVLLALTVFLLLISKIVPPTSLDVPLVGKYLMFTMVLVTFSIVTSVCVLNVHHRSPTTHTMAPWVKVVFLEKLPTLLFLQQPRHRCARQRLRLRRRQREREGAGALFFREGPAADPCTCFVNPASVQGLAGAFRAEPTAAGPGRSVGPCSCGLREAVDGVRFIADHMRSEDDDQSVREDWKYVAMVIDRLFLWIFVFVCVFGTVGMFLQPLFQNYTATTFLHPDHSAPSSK

Rattus norvegicus = species: Rattus norvegicus; assay: Selectivity ratio of Ki for rat alpha3beta4 nicotinic receptor to Ki for rat alpha4beta2 nicotinic receptor
[7] = target: Neuronal acetylcholine receptor; alpha2/beta4 (Rattus norvegicus, UniProt P12389+P12392); assay: Displacement of [3H]epibatidine from rat alpha2beta4 nicotinic receptor expressed in human HEK293 cells by liquid scintillation counting; type: cell-based
Neuronal acetylcholine receptor; alpha2/beta4, sequence (P12389 whole entry): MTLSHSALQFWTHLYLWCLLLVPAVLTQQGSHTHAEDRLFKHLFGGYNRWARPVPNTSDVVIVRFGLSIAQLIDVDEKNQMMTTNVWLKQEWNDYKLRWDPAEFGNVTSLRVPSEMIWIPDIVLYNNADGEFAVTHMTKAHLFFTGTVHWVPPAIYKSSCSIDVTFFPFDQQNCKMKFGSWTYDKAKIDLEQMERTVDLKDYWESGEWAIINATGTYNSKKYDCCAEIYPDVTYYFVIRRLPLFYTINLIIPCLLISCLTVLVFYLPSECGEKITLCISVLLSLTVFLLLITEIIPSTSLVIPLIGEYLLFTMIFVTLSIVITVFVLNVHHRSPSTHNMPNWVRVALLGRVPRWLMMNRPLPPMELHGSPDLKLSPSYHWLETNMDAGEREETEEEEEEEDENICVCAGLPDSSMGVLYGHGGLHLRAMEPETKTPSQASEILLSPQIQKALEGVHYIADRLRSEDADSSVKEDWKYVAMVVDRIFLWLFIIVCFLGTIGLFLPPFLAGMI
Neuronal acetylcholine receptor; alpha2/beta4, sequence (P12392 whole entry): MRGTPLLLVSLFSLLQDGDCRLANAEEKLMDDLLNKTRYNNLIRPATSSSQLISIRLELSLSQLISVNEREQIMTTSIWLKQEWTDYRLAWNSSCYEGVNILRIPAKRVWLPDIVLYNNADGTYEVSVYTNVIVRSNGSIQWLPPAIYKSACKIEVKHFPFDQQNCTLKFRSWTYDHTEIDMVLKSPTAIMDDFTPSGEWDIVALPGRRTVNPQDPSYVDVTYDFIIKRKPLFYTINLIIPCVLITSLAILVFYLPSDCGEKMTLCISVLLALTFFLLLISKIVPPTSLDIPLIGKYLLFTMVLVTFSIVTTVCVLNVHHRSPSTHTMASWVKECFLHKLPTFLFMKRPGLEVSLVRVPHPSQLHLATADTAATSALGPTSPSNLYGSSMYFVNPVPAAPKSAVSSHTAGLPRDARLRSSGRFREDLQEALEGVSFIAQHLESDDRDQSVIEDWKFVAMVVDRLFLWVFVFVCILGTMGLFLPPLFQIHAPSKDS

[8] = target: Neuronal acetylcholine receptor; alpha4/beta4 (Rattus norvegicus, UniProt P09483+P12392); assay: Displacement of [3H]epibatidine from rat alpha4beta4 nicotinic receptor expressed in human HEK293 cells by liquid scintillation counting; type: cell-based
Neuronal acetylcholine receptor; alpha4/beta4, sequence (P09483 whole entry): as the sequence (P09483 whole entry) above
Neuronal acetylcholine receptor; alpha4/beta4, sequence (P12392 whole entry): as the sequence (P12392 whole entry) above

[9] = target: Neuronal acetylcholine receptor; alpha4/beta2 (Rattus norvegicus) (UniProt P09483+P12390); assay: Ratio of compound Ki to epibatidine Ki for rat alpha4beta2 nicotinic receptor expressed in human HEK293 cells; type: cell-based
[10] = target: Neuronal acetylcholine receptor; alpha3/beta2 (Rattus norvegicus, UniProt P04757+P12390); assay: Displacement of [3H]epibatidine from rat alpha3beta2 nicotinic receptor expressed in human HEK293 cells by liquid scintillation counting; type: cell-based
Neuronal acetylcholine receptor; alpha3/beta2, sequence (P04757 whole entry): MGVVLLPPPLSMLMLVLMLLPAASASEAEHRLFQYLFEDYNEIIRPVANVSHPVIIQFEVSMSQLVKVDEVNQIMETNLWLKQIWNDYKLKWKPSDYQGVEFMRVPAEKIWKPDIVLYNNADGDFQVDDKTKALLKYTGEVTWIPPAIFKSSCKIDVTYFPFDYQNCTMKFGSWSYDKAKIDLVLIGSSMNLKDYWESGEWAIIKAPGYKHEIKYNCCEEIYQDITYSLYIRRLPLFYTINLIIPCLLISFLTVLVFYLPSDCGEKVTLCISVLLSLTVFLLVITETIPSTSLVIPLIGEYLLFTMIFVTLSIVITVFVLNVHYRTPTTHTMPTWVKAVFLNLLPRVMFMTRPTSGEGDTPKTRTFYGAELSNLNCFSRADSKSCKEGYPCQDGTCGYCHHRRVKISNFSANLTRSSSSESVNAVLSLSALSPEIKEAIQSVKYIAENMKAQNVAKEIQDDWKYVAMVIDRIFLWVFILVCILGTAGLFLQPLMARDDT
Neuronal acetylcholine receptor; alpha3/beta2, sequence (P12390 whole entry): as the sequence (P12390 whole entry) above

[11] = target: Neuronal acetylcholine receptor; alpha3/beta4 (Rattus norvegicus, UniProt P04757+P12392); assay: Displacement of [3H]epibatidine from rat alpha3beta4 nicotinic receptor expressed in human HEK293 cells by liquid scintillation counting; type: cell-based
Neuronal acetylcholine receptor; alpha3/beta4, sequence (P04757 whole entry): as the sequence (P04757 whole entry) above
Neuronal acetylcholine receptor; alpha3/beta4, sequence (P12392 whole entry): as the sequence (P12392 whole entry) above

[12] = target: Neuronal acetylcholine receptor subunit alpha-2 (Rattus norvegicus, UniProt P12389+P12390); assay: Displacement of [3H]epibatidine from rat alpha2beta2 nicotinic receptor expressed in human HEK293 cells by liquid scintillation counting; type: cell-based
Neuronal acetylcholine receptor subunit alpha-2, sequence (P12389 whole entry, one chain of several): as the sequence (P12389 whole entry) above

[13] = target: T1, Neuronal acetylcholine receptor; alpha4/beta2; assay: Displacement of [125I]5-A-85380 from alpha4beta2 nicotinic receptor in rat brain; type: tissue-based

## [11CH3]N1CCC[C@H]1COc1cnc(Cl)c(OCc2ccc(Cl)nc2)c1
[1]
  Drug uptake: 0.7
[2]
  Drug uptake: 0.7
[3]
  Drug uptake: 0.7
[4]
  Ratio: 3.8

## CN1CCC[C@H]1COc1cnc(Cl)c(-c2ccnc(F)c2)c1
[5]
  logD: 1.6
[6]
  Ki: 0.062 nM
Rattus norvegicus
  Ratio Ki: 9520
[7]
  Ki: 27 nM
[8]
  Ki: 16 nM
[9]
  Ratio Ki: 1
[10]
  Ki: 0.71 nM
[11]
  Ki: 590 nM
[12]
  Ki: 0.05 nM

## Fc1ncccc1OC[C@@H]1CCN1
[7]
  Ki: 180 nM
[10]
  Ki: 3 nM
[11]
  Ki: 3700 nM
[12]
  Ki: 1.4 nM

## CN1CCC[C@H]1COc1cnc(Cl)c(OCc2ccc(Cl)nc2)c1
[6]
  Ki: 0.055 nM
Rattus norvegicus
  Ratio Ki: 5820
[7]
  Ki: 14 nM
[8]
  Ki: 6.6 nM
[9]
  Ratio Ki: 0.9
[10]
  Ki: 0.26 nM
[11]
  Ki: 320 nM
[12]
  Ki: 0.031 nM

## [11CH3]N1CCC[C@H]1COc1cnc(Cl)c(/C=C/c2ccncc2)c1
[5]; read-out: logD
  logD: 1.6
[13]
  Ki: 0.028 nM

## [11CH3]N1CCC[C@H]1COc1cnc(Cl)c(-c2ccnc(F)c2)c1
[1]
  Drug uptake: 0.7
[2]
  Drug uptake: 0.7
[3]
  Drug uptake: 0.7

## CN1CCC[C@H]1COc1cnc(Cl)c(OCc2ccnc(F)c2)c1
[5]
  logD: 1.8
[6]
  Ki: 0.062 nM
Rattus norvegicus
  Ratio Ki: 1450
[7]
  Ki: 11 nM
[8]
  Ki: 1.6 nM
[9]
  Ratio Ki: 1
[10]
  Ki: 0.33 nM
[11]
  Ki: 90 nM
[12]
  Ki: 0.022 nM

## CN1CCC[C@H]1COc1cnc(Cl)c(/C=C/c2ccncc2)c1
[9]
  Ratio Ki: 2.8

## CN1CCC[C@@H]1COc1cnc(Cl)c(OCc2ccc(Cl)nc2)c1
[5]
  logD: 2.2
[6]
  Ki: 1.1 nM
Rattus norvegicus
  Ratio Ki: 318
[7]
  Ki: 22 nM
[8]
  Ki: 7.6 nM
[9]
  Ratio Ki: 18
[10]
  Ki: 0.85 nM
[11]
  Ki: 350 nM
[12]
  Ki: 1.5 nM

## Fc1cc(COc2cc(OC[C@@H]3CCCN3)cnc2Cl)ccn1
[5]
  logD: 1.4
[6]
  Ki: 0.13 nM
Rattus norvegicus
  Ratio Ki: 331
[7]
  Ki: 8.2 nM
[8]
  Ki: 1.1 nM
[9]
  Ratio Ki: 2.1
[10]
  Ki: 0.25 nM
[11]
  Ki: 43 nM
[12]
  Ki: 0.035 nM
